Results taken from patent US12594258B2, “Inhibitors of MHC-I Nef downmodulation for treating HIV” (priority 2019, dated 2026).
“Also recorded” adds a separate entry of the source. Where two headings read alike, the source gives them in different places.

Columns and labels:
[1] = tested on: primary CD4+ T cells; assay: MTT and flow cytometric viability assays in primary CD4+ T cells; assay type: cell-based, human; details: Nef activity 24 hours, viability 72 hours
Experimental: CD4^+ T cells were plated at a density of 1×10^5 cells in 200 μL R10-50 in flat-bottom 96-well plates 4 days post-stimulation with PHA. Cells were exposed to titrations of plecomacrolides or solvent controls for 72 hours in culture, at which point viability was assessed relative to solvent by MTT assay in experimental duplicates. Equal volumes of cell culture medium containing CD4^+ T cells were pelleted in 96-well round-bottom plates and incubated in 4.5 mg/mL MTT (Fisher, M6494) in R10 with no Phenol Red at 37° C. until the purple formazan signal was clearly visible. The absorbance of cell pellets resuspended in DMSO was measured at 595 nm on a Molecular Devices Emax precision microplate reader and compared a standard curve of known viable cell numbers to ensure the experimental samples fell within the linear range of the assay.

[2] = tested on: lysosomal pH in human monocyte-derive macrophages (MDMs); assay: Lysosensor Yellow/Blue dextran analysis of lysosomal pH in MDMs; assay type: cell-based
Experimental: To measure the lysosomal pH in human monocyte-derive macrophages (MDMs), MDMs adhered to 24-well plates were exposed to 500 μg/mL Lysosensor Yellow/Blue dextran, 10,000 MW (ThermoFisher, L22460) in R10 for 24 hours. MDMs were then exposed to plecomacrolides for 1 hour and harvested with 0.05% Trypsin-EDTA (Gibco 25300054). Cells were washed twice in FACS buffer, and analyzed on a MoFlo Astrios flow cytometer, with blue signal excited from a 354 nm laser and yellow signal excited from a 405 nm laser. A standard curve was generated by resuspending MDMs in equilibration buffers of known pH as previously described. The ratio of blue:yellow fluorescence intensity was calculated for each cell, the median blue:yellow ratio for the cell population for each condition was obtained, and the lysosomal pH in MDMs was calculated for each condition using the standard curve.
Lysosensor Yellow/Blue Dextran Analysis of Lysosomal pH. To measure the lysosomal pH in human MDMs, MDMs adhered to 24-well plates were exposed to 500 μg/mL Lysosensor Yellow/Blue dextran, 10,000 molecular weight (MVV) in R10 for 24 h. MDMs were then exposed to plecomacrolides for 1 h and harvested with 0.05% Trypsin-(ethylenedinitrilo)tetraacetic acid (EDTA). Cells were washed twice in FACS buffer, and analyzed on a flow cytometer, with blue signal excited from a 354-nm laser and yellow signal excited from a 405-nm laser. A standard curve was generated by resuspending MDMs in equilibration buffers of known pH. The ratio of blue:yellow fluorescence intensity was calculated for each cell, the median blue:yellow ratio for the cell population for each condition was obtained, and the lysosomal pH in MDMs was calculated for each condition using the standard curve.

[3] = tested on: HIV Nef
[4] = tested on: HIV Nef; remark: listed apart in the source

Compound | difference between the 50% effective and toxic concentrations (EC50 and TC50) [1] [fold] | neutralization of lysosomal pH [2] | EC50 ([2]; 1 hour, read-out: EC50 for lysosome neutralization) [nM] | reduction of Nef-dependent HLA-A2 downmodulation ([3]; primary T cells transduced with ΔGPE) [fold] | EC50 ([3]; read-out: EC50 for Nef inhibition, HIV-infected primary CD4+ T cells, HLA-A2) [nM] | reduction of Nef-dependent HLA-A2 downmodulation [4] | level of MHC-I restoration compared to CMA [3] | restoration of MHC-I ([3]; 24 hours post-treatment) | restoration of MHC-I to the surface of Nef-expressing cells ([3]; 48 hours of exposure) | concentration required for restoration of MHC-I compared to CMA ([3]; higher than CMA)
CO/C1=C\C(C)=C\[C@@H](C)[C@@H](O)[C@@H](C)C/C(C)=C/C=C/[C@H](OC)[C@@H]([C@@H](C)[C@@H](O)[C@H](C)[C@@]2(O)C[C@@H](O)[C@H](C)[C@@H](C(C)C)O2)OC1=O [Baf A1] | […] | completely neutralize lysosomal pH | […] | […] | […] | over ten-fold | – | – | – | –
CC[C@H](C)C(=O)O[C@H]1C[C@@H](C)C=C2C=C[C@H](C)[C@H](CC[C@@H]3C[C@@H](O)CC(=O)O3)[C@H]21 [lovastatin, Lovastatin] | – | – | – | – | – | – | a fraction of the levels achieved by CMA; also recorded: did not achieve comparable levels | little restoration of MHC-I | partially restore MHC-I | 2,000 fold
